Test results reported in ChEMBL document CHEMBL4507274 (2021).

How the values were obtained:
[1] = target: Homeodomain-interacting protein kinase 1 (Homo sapiens) (UniProt Q86Z02); conditions: Compound concentration 100.0 nM
[2] = test system: Receptor-type tyrosine-protein kinase FLT3 (Homo sapiens), P36888 [UNDEFINED MUTATION]; conditions: Compound concentration 100.0 nM
[3] = target: Serine/threonine-protein kinase BRSK1 (Homo sapiens) (UniProt Q8TDC3); conditions: Compound concentration 100.0 nM
Chain of Serine/threonine-protein kinase BRSK1 (Homo sapiens) (Q8TDC3 whole entry): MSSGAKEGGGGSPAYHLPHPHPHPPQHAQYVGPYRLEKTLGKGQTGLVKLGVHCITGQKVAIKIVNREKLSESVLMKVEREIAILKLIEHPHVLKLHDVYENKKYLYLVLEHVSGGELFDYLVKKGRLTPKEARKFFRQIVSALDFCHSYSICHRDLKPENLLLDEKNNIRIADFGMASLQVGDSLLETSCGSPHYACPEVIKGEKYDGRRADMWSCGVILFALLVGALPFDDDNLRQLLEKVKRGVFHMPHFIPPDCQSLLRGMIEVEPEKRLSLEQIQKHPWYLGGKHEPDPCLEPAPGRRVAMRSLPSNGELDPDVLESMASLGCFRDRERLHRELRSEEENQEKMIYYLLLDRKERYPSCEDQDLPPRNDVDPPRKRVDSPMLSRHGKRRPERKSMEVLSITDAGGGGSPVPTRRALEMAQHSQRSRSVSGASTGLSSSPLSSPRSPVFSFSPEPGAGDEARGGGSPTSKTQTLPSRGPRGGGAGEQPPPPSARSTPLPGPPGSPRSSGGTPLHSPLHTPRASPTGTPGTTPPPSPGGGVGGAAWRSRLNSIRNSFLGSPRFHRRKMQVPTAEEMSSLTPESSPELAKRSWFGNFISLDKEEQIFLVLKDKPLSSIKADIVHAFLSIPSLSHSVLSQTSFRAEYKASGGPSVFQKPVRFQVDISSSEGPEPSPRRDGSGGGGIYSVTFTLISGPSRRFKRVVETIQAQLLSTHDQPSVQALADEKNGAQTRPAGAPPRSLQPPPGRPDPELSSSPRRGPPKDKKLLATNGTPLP

[4] = target: Ribosomal protein S6 kinase alpha-5 (Homo sapiens) (UniProt O75582); conditions: Compound concentration 100.0 nM
Chain of Ribosomal protein S6 kinase alpha-5 (Homo sapiens) (O75582 whole entry, looked up): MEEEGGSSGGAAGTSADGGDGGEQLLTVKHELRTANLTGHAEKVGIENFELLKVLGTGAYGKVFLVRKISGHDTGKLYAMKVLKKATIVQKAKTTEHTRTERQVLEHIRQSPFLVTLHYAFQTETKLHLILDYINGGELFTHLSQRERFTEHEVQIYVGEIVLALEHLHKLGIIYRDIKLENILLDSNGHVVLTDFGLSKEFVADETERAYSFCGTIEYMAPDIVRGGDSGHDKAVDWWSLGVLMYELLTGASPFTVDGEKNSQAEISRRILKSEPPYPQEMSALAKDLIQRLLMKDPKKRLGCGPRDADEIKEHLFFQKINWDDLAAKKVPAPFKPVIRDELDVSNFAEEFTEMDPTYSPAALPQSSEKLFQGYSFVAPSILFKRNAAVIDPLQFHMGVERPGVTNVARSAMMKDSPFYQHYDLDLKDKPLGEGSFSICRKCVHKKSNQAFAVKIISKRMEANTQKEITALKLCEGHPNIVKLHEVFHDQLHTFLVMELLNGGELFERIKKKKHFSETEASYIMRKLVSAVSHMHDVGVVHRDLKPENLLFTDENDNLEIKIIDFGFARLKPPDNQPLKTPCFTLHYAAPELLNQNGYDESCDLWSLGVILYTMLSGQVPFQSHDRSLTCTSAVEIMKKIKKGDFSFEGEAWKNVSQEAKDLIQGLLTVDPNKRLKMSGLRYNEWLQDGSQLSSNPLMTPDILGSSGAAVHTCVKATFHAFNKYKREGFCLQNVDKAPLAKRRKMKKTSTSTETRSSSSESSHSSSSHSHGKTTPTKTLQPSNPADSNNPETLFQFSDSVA

[5] = target: Myosin-IIIb (Homo sapiens) (UniProt Q8WXR4); conditions: Compound concentration 100.0 nM
[6] = target: Serine/threonine-protein kinase 38 (Homo sapiens) (UniProt Q15208); conditions: Compound concentration 100.0 nM
[7] = target: Muscarinic acetylcholine receptor M5 (Homo sapiens) (UniProt P08912); conditions: Compound concentration 10.0 uM
[8] = target: Serine/threonine-protein kinase 25 (Homo sapiens) (UniProt O00506); conditions: Compound concentration 100.0 nM
[9] = target: Interferon-induced, double-stranded RNA-activated protein kinase (Homo sapiens) (UniProt P19525); conditions: Compound concentration 100.0 nM
[10] = target: Mast/stem cell growth factor receptor Kit (Homo sapiens) (UniProt P10721); conditions: Compound concentration 100.0 nM
[11] = target: D(1A) dopamine receptor (Homo sapiens) (UniProt P21728); conditions: Compound concentration 10.0 uM
[12] = target: Phosphorylase b kinase gamma catalytic chain, skeletal muscle/heart isoform (Homo sapiens) (UniProt Q16816); conditions: Compound concentration 100.0 nM
[13] = target: Ephrin type-A receptor 2 (Homo sapiens) (UniProt P29317); conditions: Compound concentration 100.0 nM
[14] = target: Serine/threonine-protein kinase RIO3 (Homo sapiens) (UniProt O14730); conditions: Compound concentration 100.0 nM
[15] = target: Serine/threonine-protein kinase SIK1 (Homo sapiens) (UniProt P57059); conditions: Compound concentration 100.0 nM
[16] = target: Serine/threonine-protein kinase PAK 4 (Homo sapiens) (UniProt O96013); conditions: Compound concentration 100.0 nM
[17] = target: Serine/threonine-protein kinase OSR1 (Homo sapiens) (UniProt O95747); conditions: Compound concentration 100.0 nM
[18] = target: Wee1-like protein kinase (Homo sapiens) (UniProt P30291); conditions: Compound concentration 100.0 nM
[19] = target: Serine/threonine-protein kinase MRCK alpha (Homo sapiens) (UniProt Q5VT25); conditions: Compound concentration 100.0 nM
[20] = test system: Tyrosine-protein kinase ABL1 (Homo sapiens), P00519 [T315I]; conditions: Compound concentration 100.0 nM
[21] = test system: Proto-oncogene tyrosine-protein kinase receptor Ret (Homo sapiens), P07949 [M918T]; conditions: Compound concentration 100.0 nM
[22] = target: STE20-like serine/threonine-protein kinase (Homo sapiens) (UniProt Q9H2G2); conditions: Compound concentration 100.0 nM
[23] = target: Phosphatidylinositol 3-kinase catalytic subunit type 3 (Homo sapiens) (UniProt Q8NEB9); conditions: Compound concentration 100.0 nM
[24] = target: Proto-oncogene tyrosine-protein kinase receptor Ret (Homo sapiens) (UniProt P07949); conditions: Compound concentration 100.0 nM
[25] = target: Serine/threonine-protein kinase SIK3 (Homo sapiens) (UniProt Q9Y2K2); conditions: Compound concentration 100.0 nM
[26] = target: Mitogen-activated protein kinase 14 (Homo sapiens) (UniProt Q16539); conditions: Compound concentration 100.0 nM
[27] = target: Serine/threonine-protein kinase MAK (Homo sapiens) (UniProt P20794); conditions: Compound concentration 100.0 nM
[28] = target: Serine/threonine-protein kinase 32B (Homo sapiens) (UniProt Q9NY57); conditions: Compound concentration 100.0 nM
[29] = target: NT-3 growth factor receptor (Homo sapiens) (UniProt Q16288); conditions: Compound concentration 100.0 nM
Chain of NT-3 growth factor receptor (Homo sapiens) (Q16288 32-839 limits assumed): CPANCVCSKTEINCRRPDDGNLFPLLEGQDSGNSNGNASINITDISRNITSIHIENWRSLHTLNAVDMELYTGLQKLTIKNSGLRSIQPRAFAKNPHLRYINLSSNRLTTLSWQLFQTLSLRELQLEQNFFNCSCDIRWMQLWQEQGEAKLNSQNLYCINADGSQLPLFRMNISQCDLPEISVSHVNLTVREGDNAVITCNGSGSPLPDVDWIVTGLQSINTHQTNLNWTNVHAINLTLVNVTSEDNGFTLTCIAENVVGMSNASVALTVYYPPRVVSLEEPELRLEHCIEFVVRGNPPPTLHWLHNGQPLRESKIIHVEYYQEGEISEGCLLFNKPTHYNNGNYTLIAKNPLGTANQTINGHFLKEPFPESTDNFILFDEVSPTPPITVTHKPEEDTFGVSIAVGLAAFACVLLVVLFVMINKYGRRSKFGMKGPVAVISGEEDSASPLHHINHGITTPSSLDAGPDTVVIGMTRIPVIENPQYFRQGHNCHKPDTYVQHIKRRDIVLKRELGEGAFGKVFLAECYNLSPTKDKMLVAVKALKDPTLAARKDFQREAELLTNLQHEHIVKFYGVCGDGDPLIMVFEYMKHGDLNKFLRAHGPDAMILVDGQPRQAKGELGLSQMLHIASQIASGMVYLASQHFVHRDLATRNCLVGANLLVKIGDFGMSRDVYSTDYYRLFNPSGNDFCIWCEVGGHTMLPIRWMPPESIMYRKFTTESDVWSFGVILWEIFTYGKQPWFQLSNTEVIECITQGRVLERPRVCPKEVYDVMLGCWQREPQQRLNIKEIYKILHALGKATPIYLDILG

[30] = target: Histamine H1 receptor (Homo sapiens) (UniProt P35367); conditions: Compound concentration 10.0 uM
[31] = target: Receptor-type tyrosine-protein kinase FLT3 (Homo sapiens) (UniProt P36888); conditions: Compound concentration 100.0 nM
[32] = target: Tyrosine-protein kinase Fyn (Homo sapiens) (UniProt P06241); conditions: Compound concentration 100.0 nM
[33] = target: Death-associated protein kinase 3 (Homo sapiens) (UniProt O43293); conditions: Compound concentration 100.0 nM
[34] = target: Serine/threonine-protein kinase TAO2 (Homo sapiens) (UniProt Q9UL54); conditions: Compound concentration 100.0 nM
Chain of Serine/threonine-protein kinase TAO2 (Homo sapiens) (Q9UL54 whole entry, canonical isoform): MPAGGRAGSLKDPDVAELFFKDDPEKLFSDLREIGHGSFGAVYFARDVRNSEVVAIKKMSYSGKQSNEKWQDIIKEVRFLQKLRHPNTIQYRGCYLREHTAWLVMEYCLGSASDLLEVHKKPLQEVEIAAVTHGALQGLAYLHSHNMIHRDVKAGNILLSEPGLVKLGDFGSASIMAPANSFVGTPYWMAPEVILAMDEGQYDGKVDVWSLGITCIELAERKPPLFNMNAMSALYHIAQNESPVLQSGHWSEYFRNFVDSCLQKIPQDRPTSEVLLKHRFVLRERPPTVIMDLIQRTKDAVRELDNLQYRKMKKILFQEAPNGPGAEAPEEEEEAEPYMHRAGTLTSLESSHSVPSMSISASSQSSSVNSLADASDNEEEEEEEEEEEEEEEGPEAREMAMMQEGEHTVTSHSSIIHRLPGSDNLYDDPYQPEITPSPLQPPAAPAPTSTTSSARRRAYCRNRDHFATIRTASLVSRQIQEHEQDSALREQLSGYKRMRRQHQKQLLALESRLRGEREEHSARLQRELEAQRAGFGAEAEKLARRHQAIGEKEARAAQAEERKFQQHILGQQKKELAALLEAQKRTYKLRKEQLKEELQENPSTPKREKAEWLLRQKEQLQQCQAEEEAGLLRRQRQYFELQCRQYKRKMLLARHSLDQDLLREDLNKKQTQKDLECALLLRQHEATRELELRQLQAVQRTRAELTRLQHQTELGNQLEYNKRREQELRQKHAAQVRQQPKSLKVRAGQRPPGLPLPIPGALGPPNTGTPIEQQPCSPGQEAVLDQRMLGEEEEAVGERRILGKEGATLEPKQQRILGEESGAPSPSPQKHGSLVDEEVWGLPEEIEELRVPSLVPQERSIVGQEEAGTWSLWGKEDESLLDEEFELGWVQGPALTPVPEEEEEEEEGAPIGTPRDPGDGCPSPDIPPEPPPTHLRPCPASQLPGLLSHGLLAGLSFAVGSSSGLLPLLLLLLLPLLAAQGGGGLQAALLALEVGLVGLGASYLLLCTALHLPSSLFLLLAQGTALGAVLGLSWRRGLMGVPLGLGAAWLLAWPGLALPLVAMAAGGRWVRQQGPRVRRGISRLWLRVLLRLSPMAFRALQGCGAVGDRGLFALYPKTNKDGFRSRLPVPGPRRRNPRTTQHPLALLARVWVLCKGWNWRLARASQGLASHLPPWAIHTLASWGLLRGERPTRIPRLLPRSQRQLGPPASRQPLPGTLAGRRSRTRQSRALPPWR

[35] = test system: Phosphatidylinositol 4,5-bisphosphate 3-kinase catalytic subunit alpha isoform (Homo sapiens), P42336 [H1047Y]; conditions: Compound concentration 100.0 nM
[36] = target: Serine/threonine-protein kinase PAK 1 (Homo sapiens) (UniProt Q13153); conditions: Compound concentration 100.0 nM
[37] = target: Receptor tyrosine-protein kinase erbB-3 (Homo sapiens) (UniProt P21860); conditions: Compound concentration 100.0 nM
[38] = target: Serine/threonine-protein kinase 17B (Homo sapiens) (UniProt O94768); conditions: Compound concentration 100.0 nM
[39] = target: SRSF protein kinase 3 (Homo sapiens) (UniProt Q9UPE1); conditions: Compound concentration 100.0 nM
[40] = target: Glycogen synthase kinase-3 beta (Homo sapiens) (UniProt P49841); conditions: Compound concentration 100.0 nM
[41] = target: Dual specificity mitogen-activated protein kinase kinase 4 (Homo sapiens) (UniProt P45985); conditions: Compound concentration 100.0 nM
[42] = test system: Proto-oncogene tyrosine-protein kinase receptor Ret (Homo sapiens), P07949 [V804L]; conditions: Compound concentration 100.0 nM
[43] = target: Rho-associated protein kinase 1 (Homo sapiens) (UniProt Q13464); conditions: Compound concentration 100.0 nM
Chain of Rho-associated protein kinase 1 (Homo sapiens) (Q13464 2-1354 limits assumed): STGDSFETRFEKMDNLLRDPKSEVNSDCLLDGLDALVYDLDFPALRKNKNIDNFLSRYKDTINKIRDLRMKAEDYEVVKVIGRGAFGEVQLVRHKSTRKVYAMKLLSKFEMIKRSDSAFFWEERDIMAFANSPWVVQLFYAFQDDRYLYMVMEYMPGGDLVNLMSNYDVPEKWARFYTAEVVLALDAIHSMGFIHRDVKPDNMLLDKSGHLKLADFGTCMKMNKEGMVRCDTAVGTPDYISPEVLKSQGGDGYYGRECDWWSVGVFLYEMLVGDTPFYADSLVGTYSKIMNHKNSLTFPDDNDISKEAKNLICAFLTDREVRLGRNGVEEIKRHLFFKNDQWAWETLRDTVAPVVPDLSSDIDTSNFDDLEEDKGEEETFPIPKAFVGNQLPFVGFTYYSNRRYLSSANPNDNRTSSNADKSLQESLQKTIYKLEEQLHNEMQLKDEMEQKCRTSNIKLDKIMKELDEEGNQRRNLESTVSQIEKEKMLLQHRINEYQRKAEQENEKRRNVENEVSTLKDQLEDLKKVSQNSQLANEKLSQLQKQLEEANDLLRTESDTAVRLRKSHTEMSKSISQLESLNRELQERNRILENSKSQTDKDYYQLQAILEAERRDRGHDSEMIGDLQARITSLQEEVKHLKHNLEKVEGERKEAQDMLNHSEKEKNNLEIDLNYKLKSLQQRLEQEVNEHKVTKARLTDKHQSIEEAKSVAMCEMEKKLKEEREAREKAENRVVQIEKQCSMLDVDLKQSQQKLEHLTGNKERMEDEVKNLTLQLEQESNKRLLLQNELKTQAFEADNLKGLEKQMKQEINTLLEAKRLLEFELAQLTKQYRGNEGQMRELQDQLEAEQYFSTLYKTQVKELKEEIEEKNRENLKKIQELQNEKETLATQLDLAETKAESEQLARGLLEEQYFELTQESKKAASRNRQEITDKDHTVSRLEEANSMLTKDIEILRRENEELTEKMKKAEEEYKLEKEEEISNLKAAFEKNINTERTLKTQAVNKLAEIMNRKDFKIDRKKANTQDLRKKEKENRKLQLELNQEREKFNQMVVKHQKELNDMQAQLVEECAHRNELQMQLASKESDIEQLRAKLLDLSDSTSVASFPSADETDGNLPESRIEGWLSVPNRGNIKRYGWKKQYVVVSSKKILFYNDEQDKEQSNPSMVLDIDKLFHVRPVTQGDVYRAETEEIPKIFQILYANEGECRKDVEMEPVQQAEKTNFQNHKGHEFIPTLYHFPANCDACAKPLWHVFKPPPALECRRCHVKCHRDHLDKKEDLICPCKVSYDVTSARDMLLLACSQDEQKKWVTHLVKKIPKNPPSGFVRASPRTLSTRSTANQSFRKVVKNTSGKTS

[44] = target: Alpha-1A adrenergic receptor (Homo sapiens) (UniProt P35348); conditions: Compound concentration 10.0 uM

Cc1c[nH]c2nccc(Oc3c(F)cc(Nc4cc(Cl)nc(N)n4)cc3F)c12 [BAY-549]
active: residual activity [43] 0.6%
inactive: residual activity [1] 100% | residual activity [2] 97% | residual activity [3] 96% | residual activity [4] 93% | residual activity [5] 91% | residual activity [6] 89% | inhibition [7] -3.6% | residual activity [8] 100% | residual activity [9] 100% | residual activity [10] 75% | inhibition [11] 16.1% | residual activity [12] 100% | residual activity [13] 100% | residual activity [14] 93% | residual activity [15] 98% | residual activity [16] 100% | residual activity [17] 92% | residual activity [18] 100% | residual activity [19] 98% | residual activity [20] 84% | residual activity [21] 100% | residual activity [22] 97% | residual activity [23] 67% | residual activity [24] 97% | residual activity [25] 100% | residual activity [26] 100% | residual activity [27] 84% | residual activity [28] 71% | residual activity [29] 86% | inhibition [30] -0.06% | residual activity [31] 75% | residual activity [32] 100% | residual activity [33] 97% | residual activity [34] 100% | residual activity [35] 83% | residual activity [36] 100% | residual activity [37] 65% | residual activity [38] 100% | residual activity [39] 100% | residual activity [40] 98% | residual activity [41] 99% | residual activity [42] 100% | inhibition [44] -7.18%

Cn1cc(Cl)c2c(Oc3c(F)cc(Nc4cc(Cl)nc(N)n4)cc3F)ccnc21 [BAY-4900]
inactive: residual activity [1] 100% | residual activity [2] 100% | residual activity [3] 100% | residual activity [4] 100% | residual activity [5] 57% | residual activity [6] 87% | inhibition [7] 3.3% | residual activity [8] 100% | residual activity [9] 100% | residual activity [10] 95% | inhibition [11] 13.2% | residual activity [12] 100% | residual activity [13] 100% | residual activity [14] 93% | residual activity [15] 100% | residual activity [16] 100% | residual activity [17] 93% | residual activity [18] 91% | residual activity [19] 84% | residual activity [20] 86% | residual activity [21] 92% | residual activity [22] 98% | residual activity [23] 75% | residual activity [24] 99% | residual activity [25] 100% | residual activity [26] 100% | residual activity [27] 97% | residual activity [28] 99% | residual activity [29] 76% | inhibition [30] 3.19% | residual activity [31] 83% | residual activity [32] 80% | residual activity [33] 100% | residual activity [34] 100% | residual activity [35] 62% | residual activity [36] 100% | residual activity [37] 75% | residual activity [38] 84% | residual activity [39] 100% | residual activity [40] 90% | residual activity [41] 80% | residual activity [42] 91% | residual activity [43] 76% | inhibition [44] -5.31%
